Measurements published in paper PMC11788964, “Clinical Pharmacology and Approach to Dose Selection of Emestedastat, a Novel Tissue Cortisol Synthesis Inhibitor for the Treatment of Central Nervous System Disease” (Clinical Pharmacology in Drug Development, 2025).

Legend:
[1] = system: healthy older men; patients with type 2 diabetes mellitus; set-up: method as in PMID 15071189; settings: cited from earlier work
[2] = system: AD population; set-up: method as in PMID 24418055; settings: 12‐week Phase 2 trial in AD; cited from earlier work
[3] = system: brain 11β‐HSD1; settings: aged mice and murine Tg2576 model of AD; cited from earlier work
[4] = system: mice with age‐associated cognitive impairment; murine Tg2576 model of AD; settings: aged mice and murine Tg2576 model of AD; cited from earlier work
[5] = system: healthy older participants; experiment: XanaMIA‐DR (ACW0005) computerized cognitive test battery (Cogstate); type: in vivo, human
Procedure: XanaMIA‐DR (ACW0005) was a double‐blind placebo‐controlled Phase 1b trial in 107 healthy older participants (age range, 50‐80 years) at doses of 5 and 10 mg daily for 6 weeks. The principal objective of XanaMIA‐DR was to assess whether the improvements in cognition observed in XanaHES were also present at the lower doses of 5 and 10 mg daily.
(§1) In both XanaHES and XanaMIA‐DR, cognition was assessed using a computerized CTB (Cogstate). The CTB comprised tests indexing key domains of cognition including processing speed, attention, visual learning, working memory, psychomotor function, and executive function. In XanaHES, least squares mean differences between the emestedastat 20 mg treatment group and the placebo group were estimated and tested at a 2‐sided 0.05 significance level. No adjustments for α were made for multiple comparisons. In XanaMIA‐DR, standardized effect sizes, equivalent to a Z score, were calculated with a threshold for clinically meaningful effect set at 0.9, representing a 1‐sided 80% confidence interval (CI).
(§2) The individual tests from the Cogstate battery were combined into 2 composite scores indexing: • · “Attention Composite” of attention and working memory (Detection Test, Identification Test, One Back Test) • · “Memory Composite” of episodic memory and learning (One Card Learning Test, Continuous Paired Associate Learning Test, and Continuous Paired Associate Learning Test‐Delayed Recall).
(§3) To compute the Attention and Memory Composite scores, each of the component‐test scores were Z transformed, the directionality of scores was reversed so that higher scores indicate better performance, and the component Z scores were averaged.

[6] = system: cognitively normal, older participants; experiment: XanaHES (ACW0003) computerized cognitive test battery (Cogstate); type: in vivo, human; settings: 20 mg daily, over 12 weeks
Procedure: The next trial, XanaHES (ACW0003) was a double‐blind, placebo‐controlled, Phase 1b trial in cognitively normal, older participants (age range, 50‐75 years) at a dose of 20 mg daily for 12 weeks. The population of 42 participants comprised 30 receiving emestedastat and 12 receiving placebo. The objectives were to assess safety, PK, HPA PD, and cognition. The computerized cognitive test battery (CTB; Cogstate) assessed attention, working memory, and episodic memory.
as §1, §2, §3

[7] = system: peripheral 11β‐HSD1; set-up: method as in PMID 28012176; settings: all doses in the MAD trial (10 to 35 mg twice daily); cited from earlier work
[8] = system: patients with AD; set-up: method as in PMID 34679364; settings: 10 mg daily 12 weeks, elevated plasma pTau181; cited from earlier work
[9] = Population pharmacokinetic (PPK) analysis of MAD, XanADu and XanaHES trials; type: in vivo, human
Procedure: PPK analysis was performed on data from 3 trials: the MAD trial in volunteers; the XanADu trial in patients with AD; and XanaHES in older, cognitively normal participants. In total, 138 participants (18 healthy volunteers, 90 patients with AD, and 30 healthy older participants) contributed a total of 1087 evaluable plasma concentration observations.
The analyses were performed using NONMEM Version 7.3.0 (ICON plc). PK parameter relationships were sought with the covariates body weight, age, sex, and healthy versus AD. The selected PPK model was a one‐compartment model with first‐order absorption and elimination. It was successfully fitted using Monte Carlo Importance Sampling Expectation Maximization estimation and included separate relative bioavailability terms for the Day 1 PK data from the XanADu and XanaHES trials. The M3 method was used to permit the inclusion of the below‐the‐limit quantification concentrations in the analysis. The model estimated between‐subject variation in all 4 parameters and used a full ω block to estimate the covariance between parameters. The model included a weight effect on the apparent volume of distribution.

[10] = Safety and tolerability in clinical trials; type: in vivo, human
Text: All trials were approved by a local ethics committee/institutional review board, and all participants gave written informed consent. Endocrinology data and a population PK (PPK) analysis are available from the following trials: • · A single‐ascending‐dose (SAD) trial in healthy volunteers (RD 656/25368)[25] • · A multiple‐ascending‐dose (MAD) trial in healthy volunteers, including a small subtrial measuring CSF concentrations (ACW0001)[25] • · A positron emission tomography (PET) trial in cognitively normal, older volunteers and patients with AD (ACW0004)[26] • · Two trials in cognitively normal, older volunteers examining safety and effects on cognition (Trials ACW0003, NCT03830762 and ACW0005; and NCT04983368) • · A PPK analysis from the healthy volunteer and patient trials • · HPA axis endocrinology data from the volunteer and patient trials • · A trial of efficacy and safety in patients with AD (ACW0002; NCT02727699)[27]
Initially, the SAD and MAD trials studied doses up to 35 mg twice daily and assessed PK and HPA PD.

[11] = system: 11β‐HSD1; set-up: method as in PMID 38250767; settings: 5 mg; cited from earlier work
[12] = SAD and MAD trials of up to 35 mg twice daily; cited from earlier work
[13] = set-up: method as in PMID 28012176; settings: cited from earlier work

Compound: CC1(C)[C@@H](OC(=O)CCC(=O)O)CC[C@]2(C)[C@H]3C(=O)C=C4[C@@H]5C[C@@](C)(C(=O)O)CC[C@]5(C)CC[C@@]4(C)[C@]3(C)CC[C@@H]12 [carbenoxolone]
- verbal fluency test (executive function) ([1]; 10 healthy older (55‐75 years) men, 4 weeks): improved
- verbal memory in the Rey Auditory Verbal Learning Test ([1]; 12 patients with type 2 diabetes mellitus): improved verbal memory

Compound: CC(C)(C(=O)NC1C2CC3CC1CC(C(N)=O)(C3)C2)N1CCN(c2ccc(C(F)(F)F)cn2)CC1 (stereo not drawn) [ABT‐384]
- therapeutic outcome in AD [2]: therapeutic failure

Compound: O=C(c1csc(-c2cn[nH]c2)c1)N1CCC(F)(c2ccccc2Cl)CC1 [UE2316]
- inhibition of 11β‐HSD1 in the brain [3]: approximately 30%
- amyloid‐β in the cortex [4]: reduction in amyloid‐β in the cortex
- memory [4]: improved memory

Compound: O=C(c1csc(-c2cn[nH]c2)c1)N1C2CCC1CC(O)(c1ncccn1)C2 (stereo not drawn) [emestedastat, (5‐(1H‐Pyrazol‐4‐yl)thiophen‐3‐yl)(3‐hydroxy‐3‐(pyrimidin‐2‐yl)‐8 azabicyclo[3.2.1]octan‐8‐yl) methanone]
- treatment effect in the tests making up the Memory Composite ([5]; 5 and 10 mg daily, 6 weeks): no evidence of any treatment effect
- improvement on the identification test (visual attention) compared to placebo ([5]; 5‐mg treatment group, 6 weeks): −0.018 U
- Cohen's d, identification test ([5]; 5‐mg treatment group, vs placebo): 0.32
- One Card Learning Test, Continuous Paired Associate Learning Test and Delayed Recall, vs placebo [6]: no difference between groups
- least squares mean difference on the One Back Test compared to placebo [6]: −0.06 U
- least squares mean difference on the detection test compared to placebo [6]: −0.04 U
- least squares mean difference on the identification test compared to placebo [6]: −0.03 U
- Cohen's d, One Back Test ([6]; vs placebo): 0.98
- Cohen's d, detection test ([6]; vs placebo): 0.49
- Cohen's d, identification test ([6]; vs placebo): 0.65
- inhibition of peripheral 11β‐HSD1 (suppression of urinary tetrahydrocortisol/tetrahydrocortisone ratios) [7]: Near complete inhibition
- Cohen's d, AD COMposite Scores [8]: < 0.2
- Cohen's d, ADAS‐Cog14 [8]: < 0.2
- Cohen's d, Clinical Dementia Ratio—Sum of Boxes compared to placebo [8]: 0.41
- Cohen's d, Mini‐Mental State Examination [8]: < 0.2
- Cohen's d, Neuropsychological Test Battery‐Executive domain [8]: 0.26
- linearity of PK ([9]; dose range 10‐70 mg): linear
- ALAG (absorption lag time), estimate ([9]; final PPK model): 0.900 h
- ka (absorption rate), estimate ([9]; final PPK model): 1.74 h⁻¹
- CL/F (apparent clearance), estimate ([9]; final PPK model, 138 participants): 4.76 L/h
- WT on V/F (covariate), estimate ([9]; final PPK model, weight effect on V/F): 1.00
- Vd/F ([9]; human, plasma, oral, final PPK model, read-out: V/F (apparent volume of distribution), estimate): 64.3 L
- half-life ([9]; human, plasma, oral, from kel = CL/V and t1/2 = ln(2)/Kel, read-out: mean elimination half‐life (95% CI)): 9.36 h
- maximum tolerated dose in humans ([10]; all trials): has not been established
- serious adverse events attributed to drug ([10]; any trial): no serious adverse events
- occupancy in the cerebellum relative to cortex [11]: lower (by about half)
- maximum tolerated dose [12]: had not been established
- tolerability [12]: well tolerated
- CSF : free plasma ratio ([13]; 4 participants, single time point): 0.33
- urinary excretion of unchanged drug ([13]; SAD and MAD trials): < 5%
